For 3 compounds, Kd results are on record in PMC10814857, “Functional Classification and Interaction Selectivity Landscape of the Human SH3 Domain Superfamily” (Cells, 2024).

Test in all cases: Fluorescence polarization SH3 domain-PRP binding
For assay [1], the target named is T1, ITSN1-4 SH3 domain (aa 1070-1138) (Homo sapiens, UniProt Q15811).
T1 construct: 1070-1138; GST (N); made in house; host or cells: Escherichia coli CodonPlus, Rosetta, BL21(DE3)
T1 sequence (Q15811 1070-1138): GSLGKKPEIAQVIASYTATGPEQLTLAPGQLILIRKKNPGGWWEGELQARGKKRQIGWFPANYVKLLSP
To be noted: FP, 0.2 µM fluorescein-labeled peptide, SH3 domain 0-200 µM, Tris/HCl pH 7.5, 25 °C, quadratic fit. As for the experimental part:
(§1) The interaction between fluorescein-labeled proline-rich peptides (0.2 µM) and increasing concentrations of SH3 domains (ranging from 0 to 200 µM) was measured in a buffer (containing 30 mM Tris/HCl (pH 7.5), 5 mM MgCl2, and 3 mM DTT at 25 °C) in a total volume of 200 µL using a Fluoromax 4 fluorimeter in polarization mode and a quartz glass fluorescence cuvette (Hellma Ultra-Micro Cuvette 105.250-QS, Thermo Fisher Scientific, Waltham, MA USA). Excitation was performed at 470 nm and emission was measured at 560 nm. Dissociation constants (Kd) were determined by fitting the concentration-dependent binding curve to a quadratic ligand binding equation.
(§2) Fluorescence polarization measurements were performed to determine the binding affinities of SH3 domain–PRP interaction pairs from the dot blot analysis. SH3 proteins were titrated at increasing concentrations against fluorescent PRPs, which were kept at a constant concentration of 0.2 µM. GRB2-2^W193K, which is defective in the binding of PRPs such as RP1, was used as a negative control as previously described. […] The resulting data (Figure S6) allowed the evaluation of equilibrium dissociation constants (Kd) for 45 interactions between the SH3 domains and the PRPs (Figure 2B; Table S6).
(§3) Figure S6. Interactions of the SH3 domains with fluorescent PRPs measured by fluorescence polarization.
(§4) Fluorescent peptides (0.2 µM) were titrated with increasing concentrations of the corresponding SH3 domains.
(§5) GRB2-2W193K, defective in the binding of PRPs such as RP1, was used as a negative control as previously described. The x-axis represents SH3 domain concentrations as GST fusion proteins in µM, while the y-axis represents fluorescence polarization. The equilibrium dissociation constants (Kd) for the respective measurements were determined by fitting the titration curves to a quadratic ligand-binding equation (solid lines). All Kd values are […]
(§6) Error bars are derived from the fitting errors.

Assay [2] addresses T2, ITSN1-5 SH3 domain (aa 1155-1214) (Homo sapiens, UniProt Q15811).
T2 construct: 1155-1214; GST (N); made in house; host or cells: Escherichia coli CodonPlus, Rosetta, BL21(DE3)
T2 sequence (Q15811 1155-1214): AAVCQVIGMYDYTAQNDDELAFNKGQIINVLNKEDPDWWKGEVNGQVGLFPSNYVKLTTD
To be noted: FP, 0.2 µM fluorescein-labeled peptide, SH3 domain 0-200 µM, Tris/HCl pH 7.5, 25 °C, quadratic fit. The procedure:
as §1, §2, §3, §4, §5, §6

The target of assay [3] is T3, NCK1-1 SH3 domain (aa 2-61) (Homo sapiens, UniProt P16333).
T3 construct: 2-61; GST (N); made in house; host or cells: Escherichia coli CodonPlus, Rosetta, BL21(DE3)
To be noted: FP, 0.2 µM fluorescein-labeled peptide, SH3 domain 0-200 µM, Tris/HCl pH 7.5, 25 °C, quadratic fit. As for the experimental part:
as §1, §2, §3, §4, §5, §6

The target in assay [4] is T4, NCK1-2 SH3 domain (aa 106-165) (Homo sapiens, UniProt P16333).
T4 construct: 106-165; GST (N); made in house; host or cells: Escherichia coli CodonPlus, Rosetta, BL21(DE3)
To be noted: FP, 0.2 µM fluorescein-labeled peptide, SH3 domain 0-200 µM, Tris/HCl pH 7.5, 25 °C, quadratic fit. As for the experimental part: as §1, §2, §3, §4, §5, §6

In assay [5] the target is T5, NCK1-3 SH3 domain (aa 190–252) (Homo sapiens, UniProt P16333).
T5 construct: 190–252; GST (N); made in house; host or cells: Escherichia coli CodonPlus, Rosetta, BL21(DE3)
To be noted: NCK1-3 (wt), FP, 0.2 µM fluorescein-labeled peptide, SH3 domain 0-200 µM, Tris/HCl pH 7.5, 25 °C, quadratic fit. As for the experimental part:
as §1, §2, §3, §4, §5, §6

Assay [6] has as its target T6, NPHP1 SH3 domain (Homo sapiens, UniProt O15259).
T6 construct: GST (N); made in house; host or cells: Escherichia coli CodonPlus, Rosetta, BL21(DE3)
T6 sequence (O15259 152-212 limits assumed): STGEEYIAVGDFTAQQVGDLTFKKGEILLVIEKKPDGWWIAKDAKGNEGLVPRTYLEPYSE
To be noted: FP, 0.2 µM fluorescein-labeled peptide, SH3 domain 0-200 µM, Tris/HCl pH 7.5, 25 °C, quadratic fit. The procedure:
as §1, §2, §3, §4, §5, §6

Assay [7] deals with T7, RASA1 SH3 domain (aa 279–341) (Homo sapiens, UniProt P20936).
T7 construct: 279–341; GST (N); made in house; host or cells: Escherichia coli CodonPlus, Rosetta, BL21(DE3)
T7 sequence (P20936 279-341): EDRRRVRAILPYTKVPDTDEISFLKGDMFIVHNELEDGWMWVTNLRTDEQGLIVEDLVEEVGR
The following applies: FP, 0.2 µM fluorescein-labeled peptide, SH3 domain 0-200 µM, Tris/HCl pH 7.5, 25 °C, quadratic fit. As for the experimental part:
as §1, §2, §3, §4, §5, §6

Assay [8] concerns the target T8, RIMBP3B-1 SH3 domain (aa 832-899) (Homo sapiens, UniProt A6NNM3).
T8 construct: 832-899; GST (N); made in house; host or cells: Escherichia coli CodonPlus, Rosetta, BL21(DE3)
T8 sequence (A6NNM3 832-899): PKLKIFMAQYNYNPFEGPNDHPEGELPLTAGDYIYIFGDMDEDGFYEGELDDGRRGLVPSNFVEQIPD
To be noted: FP, 0.2 µM fluorescein-labeled peptide, SH3 domain 0-200 µM, Tris/HCl pH 7.5, 25 °C, quadratic fit. As for the experimental part: as §1, §2, §3, §4, §5, §6

The target of assay [9] is T9, SH3GLB1 SH3 domain (aa 305-365) (Homo sapiens, UniProt Q9Y371).
T9 construct: 305-365; GST (N); made in house; host or cells: Escherichia coli CodonPlus, Rosetta, BL21(DE3)
T9 sequence (Q9Y371 305-365): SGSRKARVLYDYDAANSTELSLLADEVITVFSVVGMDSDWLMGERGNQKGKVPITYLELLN
The following applies: FP, 0.2 µM fluorescein-labeled peptide, SH3 domain 0-200 µM, Tris/HCl pH 7.5, 25 °C, quadratic fit. The procedure: as §1, §2, §3, §4, §5, §6

For assay [10], the target named is T10, SNX9 SH3 domain (aa 1-62) (Homo sapiens, UniProt Q9Y5X1).
T10 construct: 1-62; GST (N); made in house; host or cells: Escherichia coli CodonPlus, Rosetta, BL21(DE3)
T10 sequence (Q9Y5X1 1-62): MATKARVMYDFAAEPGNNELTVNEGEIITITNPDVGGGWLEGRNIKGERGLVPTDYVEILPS
To be noted: FP, 0.2 µM fluorescein-labeled peptide, SH3 domain 0-200 µM, Tris/HCl pH 7.5, 25 °C, quadratic fit. As for the experimental part: as §1, §2, §3, §4, §5, §6

The target of assay [11] is T11, SORBS1-1 SH3 domain (aa 793-852) (Homo sapiens, UniProt Q9BX66).
T11 construct: 793-852; GST (N); made in house; host or cells: Escherichia coli CodonPlus, Rosetta, BL21(DE3)
T11 sequence (Q9BX66 793-852): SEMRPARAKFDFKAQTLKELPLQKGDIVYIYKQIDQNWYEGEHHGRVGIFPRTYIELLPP
The following applies: FP, 0.2 µM fluorescein-labeled peptide, SH3 domain 0-200 µM, Tris/HCl pH 7.5, 25 °C, quadratic fit. The procedure: as §1, §2, §3, §4, §5, §6

For assay [12], the target named is T12, SRC SH3 domain (aa 77-140) (Homo sapiens, UniProt P12931).
T12 construct: 77-140; GST (N); made in house; host or cells: Escherichia coli CodonPlus, Rosetta, BL21(DE3)
T12 sequence (P12931 77-140 limits assumed): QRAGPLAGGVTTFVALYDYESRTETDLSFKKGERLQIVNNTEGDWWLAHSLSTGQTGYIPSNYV
To be noted: FP, 0.2 µM fluorescein-labeled peptide, SH3 domain 0-200 µM, Tris/HCl pH 7.5, 25 °C, quadratic fit. The procedure:
as §1, §2, §3, §4, §5, §6

Where “and” joins values, the source holds several entries; their conditions need not be identical. Identical values can stand only once. Like-named read-outs stand apart in the source and are kept apart here. Peptide text beside a SMILES is read from it.

Turning to `CC[C@H](C)[C@H](N)C(=O)N[C@@H](C)C(=O)NCC(=O)N1CCC[C@H]1C(=O)N1CCC[C@H]1C(=O)N[C@H](C(=O)N1CCC[C@H]1C(=O)N1CCC[C@H]1C(=O)N[C@@H](CCCNC(=N)N)C(=O)N[C@@H](CCC(N)=O)C(=O)N[C@@H](CO)C(=O)O)C(C)C` [Peptide P9] (H-IAGPPVPPRQS-OH), the equilibrium dissociation constant (Kd) (in general, the equilibrium constant for the complex coming apart) is more than 200 µM in assay [1]; more than 200 µM in assay [2]; “do not bind” in [3]; more than 200 µM in [3] (read-out: Kd); “do not bind” in assay [4]; more than 200 µM in [4] (read-out: Kd). Besides, the Kd entry is “tightly bound” in assay [5]; 9 µM and 0.9 µM in [5] (read-out: Kd); more than 200 µM in [6]; more than 200 µM in assay [7]; more than 200 µM in [8]; more than 200 µM in assay [9]. The Kd in [10], in [11] and in [12] was more than 200 µM in each case.

As for `C[C@H](N)C(=O)N[C@@H](Cc1ccccc1)C(=O)N[C@@H](Cc1ccccc1)C(=O)N1CCC[C@H]1C(=O)N[C@@H](CC(N)=O)C(=O)N[C@@H](CO)C(=O)N1CCC[C@H]1C(=O)N[C@@H](CO)C(=O)N1CCC[C@H]1C(=O)N[C@@H](Cc1ccccc1)C(=O)N[C@H](C(=O)N1CCC[C@H]1C(=O)N1CCC[C@H]1C(=O)N1CCC[C@H]1C(=O)N1CCC[C@H]1C(=O)N[C@@H](CCC(N)=O)C(=O)N[C@H](C(=O)N1CCC[C@H]1C(=O)N[C@@H](CO)C(=O)N1CCC[C@H]1C(=O)N[C@@H](Cc1c[nH]cn1)C(=O)NCC(=O)N[C@H](C(=O)O)[C@@H](C)O)[C@@H](C)O)[C@@H](C)O` [Peptide P7] (H-AFFPNSPSPFTPPPPQTPSPHGT-OH), the Kd in assay [1], in [2], in assay [3] (read-out: Kd), in assay [4] (read-out: Kd), in assay [5] (read-out: Kd) and in [6] was more than 200 µM throughout. Moreover, the Kd in [7] was more than 200 µM; in assay [8], 15 µM; in assay [9], more than 200 µM; in assay [10], more than 200 µM; in assay [11], 13.2 µM; in assay [12], 13.3 µM.

For the compound `CC(C)[C@H](N)C(=O)N1CCC[C@H]1C(=O)N[C@H](C(=O)N1CCC[C@H]1C(=O)N1CCC[C@H]1C(=O)N1CCC[C@H]1C(=O)N[C@H](C(=O)N1CCC[C@H]1C(=O)N1CCC[C@H]1C(=O)N[C@@H](CCCNC(=N)N)C(=O)N[C@@H](CCCNC(=N)N)C(=O)N[C@@H](CCCNC(=N)N)C(=O)O)C(C)C)C(C)C` [RP1, reference compound], the Kd was more than 200 µM in [1]; more than 200 µM in assay [2]; more than 200 µM in [3] (read-out: Kd); 2 µM in [4] (read-out: Kd); 24.6 µM in assay [5] (read-out: Kd); more than 200 µM in [6]. Moreover, the dissociation constant Kd in assay [7], in assay [8], in assay [9], in [10], in assay [11] and in assay [12] was more than 200 µM each time.
